The source of these data is patent publication US20190352288A1, “MATRIX METALLOPROTEINASE (MMP) INHIBITORS AND METHODS OF USE THEREOF” (Foresee Pharmaceuticals Co., Ltd., priority 2018, published 2019).

Entries after “also recorded” stand apart in the source; their conditions may differ.

One assay deals with recombinant human MMP-13 (Homo sapiens, UniProt P45452). Put plainly: MMP selectivity assay, MMP-13. In kind it is biochemical. The note with it: Table 2 selectivity profile. The method, then: (§1) The inhibitory effect of compounds on the rate of cleaving fluorogenic MMP substrate (Enzo, BML-P128) by recombinant human MMP-12 catalytic domain (Enzo, BML-SE138) was carried out by methods known in the art. Briefly, to each well of a 96-well black opaque plate, all the reagents were sequentially added by pipetting, and the final reaction contained 4 nM of recombinant human MMP-12 catalytic domain, 4 μM of fluorogenic MMP substrate, and various concentrations (0.15 nM to 10,000 nM) of tested compound dilutions in HEPES buffer (pH 7.5) containing 10 mM of CaCl2), 0.01% Brij® 35 (polyoxyethylene (23) lauryl ether), and 0.1 mg/ml of BSA.
(§2) The enzyme and compounds were pre-incubated on a shaker to mix in wells. After an hour of mixing, fluorogenic substrate was added to each well. Reaction without enzyme was used as a blank control in the plate. The plate was then fed into a plate reader to measure fluorescence intensity at Excitation/Emission wavelengths of 340 nm/440 nm every 10 mins for at least 1 hour at 37° C. The IC50 of each compound in MMP-12 inhibition was determined by using a readout obtained at time point 30 minutes.
(§3) The MMP selectivity assay was performed by using other recombinant human MMPs, including MMP-1, MMP-2, MMP-3, MMP-7, MMP-8, MMP-9, MMP-10, MMP-13, and MMP-14. The IC50 of the compounds for the other recombinant human MMPs was determined as described above in Example 1, and are shown in Table 2.

The target of assay [1] is T1, recombinant human MMP-12 catalytic domain (Homo sapiens, UniProt P39900).
T1 construct: recombinant human MMP-12 catalytic domain; purchased Enzo BML-SE138
T1 sequence (P39900 106-268 limits assumed): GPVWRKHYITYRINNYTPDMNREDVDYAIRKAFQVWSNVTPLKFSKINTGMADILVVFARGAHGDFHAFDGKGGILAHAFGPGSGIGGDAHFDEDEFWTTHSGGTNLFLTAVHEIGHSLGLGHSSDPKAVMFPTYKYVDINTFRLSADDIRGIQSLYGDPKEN
Put plainly: MMP-12 inhibitory assay (fluorogenic substrate cleavage). In kind it is biochemical. As to conditions: readout at 30 minutes, 37° C., Table 1. The method, then:
as §1, §2

Assay [2] relates to SD rat kidney fibrosis model by unilateral ureteral occlusion (UUO). Put plainly: Efficacy study on SD rat kidney fibrosis model by unilateral ureteral occlusion (UUO). In kind it is in vivo, Sprague Dawley (SD) rats. The method, then: This study was to evaluate the therapeutic efficacy of MMP-12 inhibitor, PC-16 on a renal fibrosis model by unilateral ureteral occlusion (UUO). Male Sprague Dawley (SD) rats (180-220 g, n=71) were used in this study. Animals were randomly divided into 4 groups: vehicle group (group-1, n=8), PC-16 2 mg/kg/day group (group-2, n=9), PC-16 6 mg/kg/day group (group-3, n=10), PC-16 20 mg/kg/day group (group-4, n=9). Animals were anesthetized with 2.5% isoflurane inhelation. The left ureter was ligated to create a unilateral ureteral occlusion (UUO) model to induce renal fibrosis. The test article, PC-16 was administrated twice a day via oral delivery after modeling for 14 days. Peripheral blood serum was prepared at pre-modeling and day-15 (one day after last dosing). All animals were euthanized and processed for left kidney pathology studies.
Animals: Gender: Male, SD rats, 180-220 g, total 71. Certificate: 11400700272659, Beijing Vital River Laboratory Animal Technology Co., Ltd., China. Animal holding: Animals were maintained in a temperature-controlled environment with a 12 hours light/12 hours dark cycle and free access to food and water. Experimental procedures were performed according to IACUC guidelines in the KCI (SuZhou) Biotech Inc. (KCI) animal research facility. Model creation: Total […] male SD rats were used in this study. After anesthesia with 2.5% isoflurane inhalation the animal abdomen was opened surgically. The left ureter was exposed and ligated close to the bladder to create the UUO model. After confirming no bleeding, the abdomen wall was closed in layers. The animals were maintained under temperature controlled pad (37° C.) for the recovery from anesthesia, and then were transferred to holding cages with regular food and water.
Experiment grouping: UUO modeling animals were divided into 7 groups randomizedly as vehicle (group-1, n=8), PC-16 2 mg/kg/day (group-5, n=9), PC-16 6 mg/kg/day (group-6, n=10), PC-16 20 mg/kg/day (group-7, n=9) (Table 4.1). Dosing regimen: All test articles were designed as an oral administration via a gastric perfusion. Test articles were designed to be delivered twice a day starting on the same day of modeling for 14 days (Table 4.1). Endpoints: 1) Blood collection: Peripheral blood was collected from all animals in each group and prepared for serum at pre-modeling and day-15 (one day after last dosing), stored at −80° C. All animals were euthanized according to KCI SOP. After confirming animal death without breath and heart bite the left kidneys were perfused with cold PBS followed by 10% neutral formalin and collected for further pathology study. 2) Detection of serum BUN and creatinine: The serum BUN and creatinine level were detected with Hitachi 7060 automatic biochemical analyzer and related test kits. 3) Kidney pathology examination: 3a) Kidney H&E staining and analysis: Following KCI's pathologic SOP all left kidneys were fixed in 10% formalin for at least 24 h at room temperature. After fixation, the kidney was cut longitudinally to get the largest surface and dehydrated in graded ethanol, cleared in xylene, and embedded in paraffin. Thin sections (3-μm) were mounted on glass slides, dewaxed, rehydrated to distilled water, and stained with hematoxylin and eosin (H&E). All stained slides were scanned with NanoZoomer Digital Pathology (S210, Hamamaci, Japan) scanner. Semi quantitative evaluation of the degree of tubular epithelial flattening and dilatation were graded from 0-5 according to the percentage of tubular involvement: score 0=no damage; score 1=1-10% damage; score 2=10-25% damage; score 3=25-50% damage; score 4=50-75% damage; score 5=75-100% damage. Semi quantitative evaluation of the tubular necrosis is graded from 0 to 3 according to the percentage of tubular involvement: score 0=no necrosis; score 1=<25% necrosis; score 2=25-50% necrosis; score 3=>50% necrosis. The average of tubular flattening and dilatation and necrosis as the total tubular damage was presented. […]

The next assay deals with T2, recombinant human MMP-1 (Homo sapiens, UniProt P03956).
T2 sequence (P03956 100-469): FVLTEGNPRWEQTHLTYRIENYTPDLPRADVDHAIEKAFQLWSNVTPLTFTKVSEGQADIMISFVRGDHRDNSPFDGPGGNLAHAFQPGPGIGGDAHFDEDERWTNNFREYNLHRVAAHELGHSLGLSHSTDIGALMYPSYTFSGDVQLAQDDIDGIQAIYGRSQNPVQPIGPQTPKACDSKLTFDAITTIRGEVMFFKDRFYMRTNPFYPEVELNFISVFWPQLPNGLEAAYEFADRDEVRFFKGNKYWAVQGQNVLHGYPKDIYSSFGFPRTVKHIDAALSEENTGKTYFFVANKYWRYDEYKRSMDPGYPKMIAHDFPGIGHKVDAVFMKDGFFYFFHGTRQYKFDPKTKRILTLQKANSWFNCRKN
Briefly: MMP selectivity assay, MMP-1. In kind it is biochemical. As to conditions: Table 2 selectivity profile. The method, then: as §1, §2, §3

Where [3] appears, read: UUO rats, 20 mg/kg/day (p<0.05).

Broadly, the IC50 is the concentration that gives 50% inhibition. As for `Cc1cc(COc2ccc(Sc3ccncc3C3NC(=O)NC3=O)cc2)ccn1` (centres unmarked) [PC-16], the IC50 at recombinant human MMP-13 was 1 to 10 µM; in assay [1] it was less than 0.01 µM; on recombinant human MMP-1, greater than 10 µM. In addition, the “collagen-IV deposition in cortex area of left kidney (IHC)” value is “significant reduction in collagen-IV deposition” in assay [2] (UUO rats, 6 mg/kg/day (P<0.05)) and “significant reduction in collagen-IV deposition” in assay [2] (setting [3]). In addition, the “interstitial fibrosis score in cortex” value in assay [2] (UUO rats, 20 mg/kg/day (p<0.001)) is on record as “significant reduction in the fibrosis score”; in assay [2] (UUO rats, all dose groups (2, 6, 20 mg/kg/day), dose dependent), “significant reduction in the fibrosis score”. Also, the “collagen-I deposition in cortex area of left kidney (IHC)” value in assay [2] (setting [3]) is “significant reduction in collagen-I deposition”. Also, in assay [2] (UUO rats, 20 mg/kg/day oral bid 14 days, day-15, 20 mg/kg/day), the “serum blood urea nitrogen (BUN) elevation vs vehicle/model group” value is on record as “slightly limit the blood urea nitrogen (BUN) elevation; also recorded: did not show a statistically significant difference”. Besides, in assay [2] (UUO rats, 2, 6, 20 mg/kg/day oral bid 14 days, 20 more effective than 2 mg/kg/day (p<0.01)), the “left kidney tubular damage (renal tubular damage score)” value is “clear dose dependent effect”. In assay [2] (UUO rats, 2, 6, 20 mg/kg/day oral bid 14 days, dose dependent), the “interstitial inflammation in cortex (semi quantitative score)” value is on record as “significant reduction”.
